In DBAASP:
Converted amounts (≈) assume the structure as drawn. “And” between values parts separate entries of the source, which are not always exact repeats. Equal entries are not always repeated. Values belong to the molecule of their own block, whether it stands above or below them.

How the values were obtained:
Test in all cases: ≥ marks a high value that may be exact or a test limit, other limits are often not marked, values filed in µg/mL are converted to µM
[1] = system: Stenotrophomonas maltophilia ATCC 13637
[2] = system: Pseudomonas aeruginosa ATCC 27853
[3] = system: Bacillus subtilis ATCC 6633
[4] = system: Escherichia coli ATCC 25922
Proteus mirabilis = system: Proteus mirabilis
Streptococcus pyogenes = system: Streptococcus pyogenes
[5] = system: Staphylococcus epidermidis
[6] = system: Staphylococcus aureus ATCC 25923
[7] = system: Micrococcus luteus ATCC 10240
[8] = system: Candida albicans ATCC 90112
Serratia rubidaea X01 = system: Serratia rubidaea X01
[9] = system: Staphylococcus carnosus KHS
[10] = system: Enterococcus faecalis 981
[11] = system: Bacillus licheniformis X39
[12] = system: Psychrobacter faecalis X29
[13] = system: Rhodococcus rhodochrous X15
[14] = system: Klebsiella pneumoniae ATCC 700603
[15] = system: Staphylococcus aureus T4/6
[16] = system: Candida albicans ATCC 90028
[17] = system: Staphylococcus aureus 145/08
[18] = system: Staphylococcus aureus S908
[19] = system: Escherichia coli ATCC 25726
[20] = system: Staphylococcus aureus V4180
[21] = system: Acinetobacter baumannii I NM8
[22] = system: Staphylococcus aureus 274/08
[23] = system: Staphylococcus aureus 127/08
[24] = system: Staphylococcus aureus ΔmprF
[25] = system: Staphylococcus aureus ΔmprFpRBsyn
[26] = system: Enterococcus faecalis CDC 21
[27] = system: Staphylococcus aureus 28841
[28] = system: Enterococcus faecium 94-132
[29] = system: Salmonella enterica subsp. enterica serovar Typhimurium ATCC 14028s
[30] = system: Staphylococcus aureus 930918-3
[31] = system: Enterococcus faecalis ATCC 29212
[32] = system: Pseudomonas aeruginosa MR3007
Enterococcus faecium = system: Enterococcus faecium
[33] = system: Pseudomonas aeruginosa MR2123
[34] = system: Listeria monocytogenes EGD
[35] = system: Staphylococcus aureus 30371
[36] = system: Salmonella enterica serovar typhimurium MS7953s
Escherichia coli ML-35p = system: Escherichia coli ML-35p
[37] = system: Candida albicans ATCC 10231
Klebsiella pneumoniae = system: Klebsiella pneumoniae
[38] = system: Pseudomonas aeruginosa SBI-N
Escherichia coli BAS 849 = system: Escherichia coli BAS 849

MIC [1]: 30 µM (≈ 44.2 µg/mL)
MIC [2]: > 30 µM
MIC [3]: 30 µM (≈ 44.2 µg/mL)
MIC [4]: 30 µM (≈ 44.2 µg/mL)
MIC (Proteus mirabilis): ≥ 60 µM
MIC (Streptococcus pyogenes): 30 µM (≈ 44.2 µg/mL)
MIC [5]: 30 µM (≈ 44.2 µg/mL)
MIC [6]: 30 µM (≈ 44.2 µg/mL)
MIC [7]: 30 µM (≈ 44.2 µg/mL)
MIC [8]: 7.5 µM (≈ 11.1 µg/mL)
Compound: CC[C@H](C)[C@H](NC(=O)[C@H](CC(=O)O)NC(=O)[C@@H](N)Cc1ccccc1)C(=O)N[C@@H](CCSC)C(=O)NCC(=O)N[C@@H](CC(C)C)C(=O)N[C@H](C(=O)N[C@@H](CCCCN)C(=O)N[C@@H](CCCCN)C(=O)N[C@H](C(=O)N[C@@H](C)C(=O)NCC(=O)N[C@@H](C)C(=O)N[C@@H](CC(C)C)C(N)=O)C(C)C)[C@@H](C)CC [FDIMGLIKKVAGAL]

MIC [24]: 2.93 µM (≈ 8 µg/mL)
MIC [25]: 2.93 µM and 5.86 µM
Compound: CC(C)C[C@H](NC(=O)[C@@H](NC(=O)CNC(=O)[C@H](CCCN=C(N)N)NC(=O)[C@@H](NC(=O)[C@H](CCCN=C(N)N)NC(=O)[C@@H](NC(=O)[C@H](Cc1ccc(O)cc1)NC(=O)[C@H](C)NC(=O)[C@H](Cc1ccc(O)cc1)NC(=O)[C@@H](NC(=O)[C@H](CO)NC(=O)[C@H](Cc1c[nH]c2ccccc12)NC(=O)[C@@H](N)CCCN=C(N)N)C(C)C)C(C)C)C(C)C)C(C)C)C(=O)N[C@H](C(=O)N[C@@H](CCCN=C(N)N)C(=O)N[C@@H](Cc1ccc(O)cc1)C(=O)N[C@@H](CCCN=C(N)N)C(=O)N[C@@H](CCCN=C(N)N)C(=O)N[C@@H](CO)C(=O)N[C@@H](Cc1c[nH]c2ccccc12)C(=O)O)C(C)C [RWSVYAYVRVRGVLVRYRRSW]

MIC [26]: 0.225 µM (≈ 0.6 µg/mL)
MIC [27]: 0.712 µM (≈ 1.9 µg/mL)
MIC [28]: 0.075 µM (≈ 0.2 µg/mL)
MIC [29]: 0.6 µM (≈ 1.6 µg/mL)
MIC [30]: 0.637 µM (≈ 1.7 µg/mL)
MIC [4]: 96 µM (≈ 256 µg/mL)
MIC [31]: 96 µM (≈ 256 µg/mL)
MIC [32]: 0.412 µM (≈ 1.1 µg/mL)
MIC (Enterococcus faecium): 0.113 µM (≈ 0.3 µg/mL)
MIC [33]: 0.3 µM (≈ 0.8 µg/mL)
MIC [34]: 0.15 µM (≈ 0.4 µg/mL)
MIC [35]: 1.01 µM (≈ 2.7 µg/mL)
MIC [36]: 0.15 µM (≈ 0.4 µg/mL)
MIC (Escherichia coli ML-35p): 0.562 µM (≈ 1.5 µg/mL)
MIC [37]: 48 µM and > 24 µM
MIC (Klebsiella pneumoniae): 0.45 µM (≈ 1.2 µg/mL)
MIC [38]: 0.375 µM (≈ 1 µg/mL)
MIC (Escherichia coli BAS 849): 0.562 µM (≈ 1.5 µg/mL)
Compound: CC[C@H](C)[C@H](N=C(O)[C@H](CCCCN)N=C(O)CN=C(O)[C@H](CC(C)C)N=C(O)[C@H](Cc1ccccc1)N=C(O)[C@H](CCC(=N)O)N=C(O)[C@H](Cc1ccccc1)N=C(O)[C@@H](N)C(C)C)C(O)=N[C@H](C(O)=N[C@@H](Cc1cnc[nH]1)C(O)=N[C@@H](Cc1cnc[nH]1)C(O)=N[C@H](C(O)=NCC(O)=N[C@@H](CC(=N)O)C(O)=N[C@@H](Cc1ccccc1)C(O)=N[C@H](C(O)=N[C@@H](Cc1cnc[nH]1)C(O)=NCC(O)=N[C@@H](Cc1ccccc1)C(O)=N[C@@H](CO)C(O)=N[C@@H](Cc1cnc[nH]1)C(O)=N[C@H](C(O)=N[C@@H](Cc1ccccc1)C(=N)O)C(C)C)C(C)C)C(C)C)[C@@H](C)CC [VFQFLGKIIHHVGNFVHGFSHVF]

Further lines, the molecule ahead of its results:

Compound: CC(C)C[C@H](NC(=O)[C@H](CC(C)C)NC(=O)CNC(=O)[C@H](CCCCN)NC(=O)[C@H](CC(C)C)NC(=O)[C@H](CC(C)C)NC(=O)[C@H](CC(N)=O)NC(=O)CNC(=O)[C@@H](NC(=O)[C@H](Cc1ccccc1)NC(=O)[C@@H]1CCCN1C(=O)[C@H](CC(C)C)NC(=O)[C@@H](N)Cc1ccccc1)C(C)C)C(N)=O [FLPFVGNLLKGLL]
MIC (Serratia rubidaea X01): ≥ 75 µM
MIC [9]: 19 µM (≈ 27.2 µg/mL)
MIC [10]: 19 µM (≈ 27.2 µg/mL)
MIC [11]: 19 µM (≈ 27.2 µg/mL)
MIC [12]: ≥ 75 µM
MIC [6]: 9 µM (≈ 12.9 µg/mL)
MIC [13]: 9 µM (≈ 12.9 µg/mL)

Compound: CC(C)C[C@H](NC(=O)CNC(=O)[C@H](CC(C)C)NC(=O)[C@H](CCCCN)NC(=O)[C@H](CC(C)C)NC(=O)[C@H](CC(C)C)NC(=O)[C@@H]1CCCN1C(=O)CNC(=O)[C@H](CC(C)C)NC(=O)[C@H](Cc1ccccc1)NC(=O)CN)C(=O)N[C@@H](CCCCN)C(=O)NCC(=O)N[C@@H](C)C(=O)N[C@@H](C)C(=O)N[C@@H](CCCCN)C(=O)N[C@@H](CC(C)C)C(=O)N[C@@H](CC(C)C)C(=O)N1CCC[C@H]1C(=O)N[C@@H](CCC(N)=O)C(=O)N[C@@H](CC(C)C)C(=O)N[C@@H](CC(C)C)C(=O)N1CCC[C@H]1C(=O)N[C@@H](CO)C(=O)N[C@@H](CCCN=C(N)N)C(=O)N[C@@H](CCC(N)=O)C(=O)N[C@@H](CCC(N)=O)C(=O)O [GFLGPLLKLGLKGAAKLLPQLLPSRQQ]
MIC [14]: 50 µM (≈ 143 µg/mL)
MIC [15]: 2.5 µM (≈ 7.14 µg/mL)
MIC [2]: 25 µM (≈ 71.4 µg/mL)
MIC [16]: 12.5 µM (≈ 35.7 µg/mL)
MIC [17]: 2.5 µM (≈ 7.14 µg/mL)
MIC [18]: 2.5 µM (≈ 7.14 µg/mL)
MIC [19]: ≥ 50 µM
MIC [20]: 2.5 µM (≈ 7.14 µg/mL)
MIC [21]: 6 µM (≈ 17.1 µg/mL)
MIC [6]: 2.5 µM and 6 µM
MIC [22]: 2.5 µM (≈ 7.14 µg/mL)
MIC [23]: 2.5 µM (≈ 7.14 µg/mL)
